From article PMC10165273, “Itch receptor MRGPRX4 interacts with the receptor activity–modifying proteins” (The Journal of Biological Chemistry, 2023)
Where two headings read alike, the source gives them in different places.

Target: T1, MRGPRX4 (Homo sapiens, UniProt Q96LA9)
T1 construct: expressed in transfected cells; host or cells: HEK293T
Test: IP1 accumulation HTRF assay, MRGPRX4
Type: cell-based
Parameters: key to IP1 Basal / IP1 accumulation with YM (Figure 1c) / response to agonist, MRGPRX4 / IP1 accumulation: % IP1: unstimulated mock-transfected = 0%, fully stimulated MRGPRX4 = 100%
Conditions: for IP1 accumulation (normalized): Supplementary Figure 5d-g

[1] = Tet-On MRGPRX4, over 1pg/cell Normalized, Dox 3300 ng/mL (Fig. S5C)

T1 sequence (Q96LA9 whole entry): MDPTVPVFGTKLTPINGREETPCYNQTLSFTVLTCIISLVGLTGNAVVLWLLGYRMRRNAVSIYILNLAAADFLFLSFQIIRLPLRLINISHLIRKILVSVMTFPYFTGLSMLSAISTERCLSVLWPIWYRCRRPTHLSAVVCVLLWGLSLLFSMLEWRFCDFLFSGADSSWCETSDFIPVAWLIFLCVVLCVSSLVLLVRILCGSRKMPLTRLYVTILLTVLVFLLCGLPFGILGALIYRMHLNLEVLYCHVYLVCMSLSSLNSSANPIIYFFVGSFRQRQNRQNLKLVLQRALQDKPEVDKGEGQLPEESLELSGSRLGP

## CC(C)[C@H]1CC[C@H](C(=O)N[C@H](Cc2ccccc2)C(=O)O)CC1 [Nateglinide]
Tet-On MRGPRX4 1pg/cell, Dox 3300 ng/mL (Fig. S5B), read-out: IP1 EC50
  EC50: 9.26 µM
Tet-On MRGPRX4 1pg/cell, Dox 3300 ng/mL (Fig. S5B), read-out: IP1 Emax
  Emax: 34.4%
Tet-On MRGPRX4 1pg/cell, Dox 3300 ng/mL (Fig. S5B), read-out: IP1 span
  Emax: 35.4%
Tet-On MRGPRX4 1pg/cell, No dox (Fig. S5B)
  IP1 Basal: -1.503
Tet-On MRGPRX4 1pg/cell, No dox (Fig. S5B), read-out: IP1 Emax
  Emax: 25%
Tet-On MRGPRX4 1pg/cell, No dox (Fig. S5B), read-out: IP1 span
  Emax: 26.5%
Tet-On MRGPRX4 2pg/cell, Dox 13 ng/mL (Fig. S5A)
  IP1 Basal: 6.149
Tet-On MRGPRX4 2pg/cell, Dox 13 ng/mL (Fig. S5A), read-out: IP1 EC50
  EC50: 7.35 µM
Tet-On MRGPRX4 2pg/cell, Dox 13 ng/mL (Fig. S5A), read-out: IP1 Emax
  Emax: 84.9%
Tet-On MRGPRX4 2pg/cell, Dox 13 ng/mL (Fig. S5A), read-out: IP1 logEC50 (converted)
  EC50: 7.35 µM
Tet-On MRGPRX4 2pg/cell, Dox 13 ng/mL (Fig. S5A), read-out: IP1 span
  Emax: 78.8%
Tet-On MRGPRX4 2pg/cell, Dox 40 ng/mL (Fig. S5A)
  IP1 Basal: 7.421
Tet-On MRGPRX4 2pg/cell, Dox 40 ng/mL (Fig. S5A), read-out: IP1 EC50
  EC50: 6.07 µM
Tet-On MRGPRX4 2pg/cell, Dox 40 ng/mL (Fig. S5A), read-out: IP1 Emax
  Emax: 87.5%
Tet-On MRGPRX4 2pg/cell, Dox 40 ng/mL (Fig. S5A), read-out: IP1 span
  Emax: 80.1%
Tet-On MRGPRX4 2pg/cell, Dox 1100 ng/mL (Fig. S5A)
  IP1 Basal: 11.03
Tet-On MRGPRX4 2pg/cell, Dox 1100 ng/mL (Fig. S5A), read-out: IP1 Emax
  Emax: 101%
Tet-On MRGPRX4 2pg/cell, Dox 1100 ng/mL (Fig. S5A), read-out: IP1 logEC50 (converted)
  EC50: 5.41 µM
Tet-On MRGPRX4 2pg/cell, Dox 1100 ng/mL (Fig. S5A), read-out: IP1 span
  Emax: 90.4%
Tet-On MRGPRX4 2pg/cell, Dox 3300 ng/mL (Fig. S5A)
  IP1 Basal: 10.81
Tet-On MRGPRX4 2pg/cell, Dox 3300 ng/mL (Fig. S5A), read-out: IP1 EC50
  EC50: 6.36 µM
Tet-On MRGPRX4 2pg/cell, Dox 3300 ng/mL (Fig. S5A), read-out: IP1 Emax
  Emax: 106%
Tet-On MRGPRX4 2pg/cell, Dox 3300 ng/mL (Fig. S5A), read-out: IP1 span
  Emax: 95.6%
Tet-On MRGPRX4 2pg/cell, Dox […] (Fig. S5A)
  IP1 logEC50: -5.040
Tet-On MRGPRX4 2pg/cell, No dox (Fig. S5A)
  IP1 Basal: 0.7169
Tet-On MRGPRX4 2pg/cell, No dox (Fig. S5A), read-out: IP1 Emax
  Emax: 72.3%
Tet-On MRGPRX4 2pg/cell, No dox (Fig. S5A), read-out: IP1 span
  Emax: 71.5%
Tet-On MRGPRX4, over 1pg/cell Normalized, Dox 13 ng/mL (Fig. S5C)
  IP1 Basal: -3.443
Tet-On MRGPRX4, over 1pg/cell Normalized, Dox 13 ng/mL (Fig. S5C), read-out: IP1 EC50
  EC50: 19 µM
Tet-On MRGPRX4, over 1pg/cell Normalized, Dox 13 ng/mL (Fig. S5C), read-out: IP1 Emax
  Emax: 59.2%
Tet-On MRGPRX4, over 1pg/cell Normalized, Dox 13 ng/mL (Fig. S5C), read-out: IP1 span
  Emax: 62.7%
Tet-On MRGPRX4, over 1pg/cell Normalized, Dox 40 ng/mL (Fig. S5C)
  IP1 Basal: -3.289
Tet-On MRGPRX4, over 1pg/cell Normalized, Dox 40 ng/mL (Fig. S5C), read-out: IP1 EC50
  EC50: 13.5 µM
Tet-On MRGPRX4, over 1pg/cell Normalized, Dox 40 ng/mL (Fig. S5C), read-out: IP1 Emax
  Emax: 63.5%
Tet-On MRGPRX4, over 1pg/cell Normalized, Dox 40 ng/mL (Fig. S5C), read-out: IP1 span
  Emax: 66.8%
Tet-On MRGPRX4, over 1pg/cell Normalized, Dox 1100 ng/mL (Fig. S5C)
  IP1 Basal: -2.284
Tet-On MRGPRX4, over 1pg/cell Normalized, Dox 1100 ng/mL (Fig. S5C), read-out: IP1 EC50
  EC50: 10.7 µM
Tet-On MRGPRX4, over 1pg/cell Normalized, Dox 1100 ng/mL (Fig. S5C), read-out: IP1 Emax
  Emax: 100%
Tet-On MRGPRX4, over 1pg/cell Normalized, Dox 1100 ng/mL (Fig. S5C), read-out: IP1 span
  Emax: 102%
[1]
  IP1 Basal: 3.818
  IP1 logEC50: -5.036
Tet-On MRGPRX4, over 1pg/cell Normalized, Dox 3300 ng/mL (Fig. S5C), read-out: IP1 EC50
  EC50: 9.2 µM
Tet-On MRGPRX4, over 1pg/cell Normalized, Dox 3300 ng/mL (Fig. S5C), read-out: IP1 Emax
  Emax: 111%
Tet-On MRGPRX4, over 1pg/cell Normalized, Dox 3300 ng/mL (Fig. S5C), read-out: IP1 span
  Emax: 107%
Tet-On MRGPRX4, over 1pg/cell Normalized, No dox (Fig. S5C)
  IP1 Basal: -1.726
Tet-On MRGPRX4, over 1pg/cell Normalized, No dox (Fig. S5C), read-out: IP1 Emax
  Emax: 55.6%
Tet-On MRGPRX4, over 1pg/cell Normalized, No dox (Fig. S5C), read-out: IP1 span
  Emax: 57.3%
Tet-On MRGPRX4:RAMP Ratio 1:0 (Fig. S5D-F)
  IP1 Basal: 8.926
Tet-On MRGPRX4:RAMP Ratio 1:0 (Fig. S5D-F), read-out: IP1 EC50
  EC50: 4.06 µM
Tet-On MRGPRX4:RAMP Ratio 1:0 (Fig. S5D-F), read-out: IP1 Emax
  Emax: 107%
Tet-On MRGPRX4:RAMP Ratio 1:0 (Fig. S5D-F), read-out: IP1 span
  Emax: 97.7%
Tet-On MRGPRX4:RAMP Ratio 1:0, no dox (Fig. S5D-F)
  IP1 Basal: 0.2822
Tet-On MRGPRX4:RAMP Ratio 1:0, no dox (Fig. S5D-F), read-out: IP1 Emax
  Emax: 2.46%
Tet-On MRGPRX4:RAMP Ratio 1:0, no dox (Fig. S5D-F), read-out: IP1 span
  Emax: 2.17%
Construct FLAG-MRGPRX4-1D4 (Fig. S4A-F)
  IP1 Basal: 6.903
Construct FLAG-MRGPRX4-1D4 (Fig. S4A-F), read-out: IP1 EC50
  EC50: 10.1 µM
Construct FLAG-MRGPRX4-1D4 (Fig. S4A-F), read-out: IP1 Emax
  Emax: 102%
Construct FLAG-MRGPRX4-1D4 (Fig. S4A-F), read-out: IP1 span
  Emax: 95.1%
Construct FLAG-MRGPRX4-GFP10-1D4 (Fig. S4A-F)
  IP1 Basal: 7.722
Construct FLAG-MRGPRX4-GFP10-1D4 (Fig. S4A-F), read-out: IP1 EC50
  EC50: 9.91 µM
Construct FLAG-MRGPRX4-GFP10-1D4 (Fig. S4A-F), read-out: IP1 Emax
  Emax: 110%
Construct FLAG-MRGPRX4-GFP10-1D4 (Fig. S4A-F), read-out: IP1 span
  Emax: 102%
Construct FLAG-NLuc-HT7-MRGPRX4-GFP10-1D4 (Fig. S4A-F)
  IP1 Basal: 8.575
Construct FLAG-NLuc-HT7-MRGPRX4-GFP10-1D4 (Fig. S4A-F), read-out: IP1 EC50
  EC50: 6.41 µM
Construct FLAG-NLuc-HT7-MRGPRX4-GFP10-1D4 (Fig. S4A-F), read-out: IP1 Emax
  Emax: 55.2%
Construct FLAG-NLuc-HT7-MRGPRX4-GFP10-1D4 (Fig. S4A-F), read-out: IP1 span
  Emax: 46.6%
Construct HA-MRGPRX4-1D4 (Fig. S4A-F)
  IP1 Basal: 13.13
Construct HA-MRGPRX4-1D4 (Fig. S4A-F), read-out: IP1 EC50
  EC50: 10.7 µM
Construct HA-MRGPRX4-1D4 (Fig. S4A-F), read-out: IP1 Emax
  Emax: 91.5%
Construct HA-MRGPRX4-1D4 (Fig. S4A-F), read-out: IP1 span
  Emax: 78.4%
Log [nateglinide] (M) -4, MRGPRX4 no dox
  IP1 accumulation (normalized): 1.452
Log [nateglinide] (M) -4.69897, MRGPRX4
  IP1 accumulation (normalized): 92.3953
Log [nateglinide] (M) -5.39794, MRGPRX4
  IP1 accumulation (normalized): 57.3306
Log [nateglinide] (M) -6.09691, MRGPRX4
  IP1 accumulation (normalized): 20.5565
Log [nateglinide] (M) -6.79588, MRGPRX4
  IP1 accumulation (normalized): 15.0154
Log [nateglinide] (M) -7.49485, MRGPRX4
  IP1 accumulation (normalized): 11.7498
